US10322111B2, “Chemokine receptor binding heterocyclic compounds with enhanced efficacy” (Genzyme Corporation, priority 2001, dated 2019)
Read-outs that look alike come from different tables or passages of the source.

Tested on: CFU-GM, BFU-E and CFU-GEMM progenitor cells
Settings: 80 μg/kg s.c.; for % CHG, BFU-E, methylcellulose culture / % CHG, CFU-GEMM, methylcellulose culture / % CHG, CFU-GM, methylcellulose culture / mean fold change compared to T 0, BFU-E, methylcellulose culture, MEAN / mean fold change compared to T 0, CFU-GEMM, methylcellulose culture, MEAN / mean fold change compared to T 0, CFU-GM, methylcellulose culture, MEAN: all five donors

c1cc(CN2CCCNCCNCCCNCC2)ccc1CN1CCCNCCNCCCNCC1 [AMD3100, 1,1′-[1,4-phenylene-bis(methylene)]-bis-1,4,8,11-tetraazacyclotetradecane]
fold change from T=0, progenitors CFU-GM, methylcellulose culture (P3, T = 24 h after injection): 1.43 fold | Absolute # of Progenitors per ML, BFU-E (P4, T = 1 h after injection): 672 per ML | Absolute # of Progenitors per ML, CFU-GEMM (P4, T = 1 h after injection): 199 per ML | Absolute # of Progenitors per ML, CFU-GM (P4, T = 1 h after injection): 947 per ML | fold change from T=0, progenitors BFU-E, methylcellulose culture (P4, T = 1 h after injection): 1.46 fold | fold change from T=0, progenitors CFU-GEMM, methylcellulose culture (P4, T = 1 h after injection): 1.96 fold | fold change from T=0, progenitors CFU-GM, methylcellulose culture (P4, T = 1 h after injection): 6.87 fold | Absolute # of Progenitors per ML, BFU-E (P4, T = 3 h after injection): 1195 per ML | Absolute # of Progenitors per ML, CFU-GEMM (P4, T = 3 h after injection): 519 per ML | Absolute # of Progenitors per ML, CFU-GM (P4, T = 3 h after injection): 2857 per ML | fold change from T=0, progenitors BFU-E, methylcellulose culture (P4, T = 3 h after injection): 2.60 fold | fold change from T=0, progenitors CFU-GEMM, methylcellulose culture (P4, T = 3 h after injection): 5.14 fold | fold change from T=0, progenitors CFU-GM, methylcellulose culture (P4, T = 3 h after injection): 20.72 fold | Absolute # of Progenitors per ML, BFU-E (P4, T = 6 h after injection): 1533 per ML | Absolute # of Progenitors per ML, CFU-GEMM (P4, T = 6 h after injection): 920 per ML | Absolute # of Progenitors per ML, CFU-GM (P4, T = 6 h after injection): 3936 per ML | fold change from T=0, progenitors BFU-E, methylcellulose culture (P4, T = 6 h after injection): 3.34 fold | fold change from T=0, progenitors CFU-GEMM, methylcellulose culture (P4, T = 6 h after injection): 9.10 fold | fold change from T=0, progenitors CFU-GM, methylcellulose culture (P4, T = 6 h after injection): 28.54 fold | Absolute # of Progenitors per ML, BFU-E (P4, T = 9 h after injection): 1348 per ML | Absolute # of Progenitors per ML, CFU-GEMM (P4, T = 9 h after injection): 457 per ML | Absolute # of Progenitors per ML, CFU-GM (P4, T = 9 h after injection): 1942 per ML | fold change from T=0, progenitors BFU-E, methylcellulose culture (P4, T = 9 h after injection): 2.93 fold | fold change from T=0, progenitors CFU-GEMM, methylcellulose culture (P4, T = 9 h after injection): 4.52 fold | fold change from T=0, progenitors CFU-GM, methylcellulose culture (P4, T = 9 h after injection): 14.08 fold | Absolute # of Progenitors per ML, BFU-E (P4, T = 24 h after injection): 362 per ML | Absolute # of Progenitors per ML, CFU-GEMM (P4, T = 24 h after injection): 99 per ML | Absolute # of Progenitors per ML, CFU-GM (P4, T = 24 h after injection): 208 per ML | fold change from T=0, progenitors BFU-E, methylcellulose culture (P4, T = 24 h after injection): 0.79 fold | fold change from T=0, progenitors CFU-GEMM, methylcellulose culture (P4, T = 24 h after injection): 0.98 fold | fold change from T=0, progenitors CFU-GM, methylcellulose culture (P4, T = 24 h after injection): 1.51 fold | Absolute # of Progenitors per ML, BFU-E (P5, T = 1 h after injection): 730 per ML | Absolute # of Progenitors per ML, CFU-GEMM (P5, T = 1 h after injection): 169 per ML | Absolute # of Progenitors per ML, CFU-GM (P5, T = 1 h after injection): 481 per ML | fold change from T=0, progenitors BFU-E, methylcellulose culture (P5, T = 1 h after injection): 2.13 fold | fold change from T=0, progenitors CFU-GEMM, methylcellulose culture (P5, T = 1 h after injection): 3.07 fold | fold change from T=0, progenitors CFU-GM, methylcellulose culture (P5, T = 1 h after injection): 2.84 fold | Absolute # of Progenitors per ML, BFU-E (P5, T = 3 h after injection): 1288 per ML | Absolute # of Progenitors per ML, CFU-GEMM (P5, T = 3 h after injection): 244 per ML | Absolute # of Progenitors per ML, CFU-GM (P5, T = 3 h after injection): 1423 per ML | fold change from T=0, progenitors BFU-E, methylcellulose culture (P5, T = 3 h after injection): 3.75 fold | fold change from T=0, progenitors CFU-GM, methylcellulose culture (P5, T = 3 h after injection): 8.40 fold | Absolute # of Progenitors per ML, BFU-E (P5, T = 6 h after injection): 3208 per ML | Absolute # of Progenitors per ML, CFU-GEMM (P5, T = 6 h after injection): 987 per ML | Absolute # of Progenitors per ML, CFU-GM (P5, T = 6 h after injection): 3454 per ML | fold change from T=0, progenitors BFU-E, methylcellulose culture (P5, T = 6 h after injection): 9.35 fold | fold change from T=0, progenitors CFU-GEMM, methylcellulose culture (P5, T = 6 h after injection): 17.92 fold | fold change from T=0, progenitors CFU-GM, methylcellulose culture (P5, T = 6 h after injection): 20.39 fold | Absolute # of Progenitors per ML, BFU-E (P5, T = 9 h after injection): 1731 per ML | Absolute # of Progenitors per ML, CFU-GEMM (P5, T = 9 h after injection): 526 per ML | Absolute # of Progenitors per ML, CFU-GM (P5, T = 9 h after injection): 1710 per ML | fold change from T=0, progenitors BFU-E, methylcellulose culture (P5, T = 9 h after injection): 5.05 fold | fold change from T=0, progenitors CFU-GEMM, methylcellulose culture (P5, T = 9 h after injection): 9.55 fold | fold change from T=0, progenitors CFU-GM, methylcellulose culture (P5, T = 9 h after injection): 10.09 fold | Absolute # of Progenitors per ML, BFU-E (P5, T = 24 h after injection): 495 per ML | Absolute # of Progenitors per ML, CFU-GEMM (P5, T = 24 h after injection): 124 per ML | Absolute # of Progenitors per ML, CFU-GM (P5, T = 24 h after injection): 310 per ML | fold change from T=0, progenitors BFU-E, methylcellulose culture (P5, T = 24 h after injection): 1.44 fold | fold change from T=0, progenitors CFU-GEMM, methylcellulose culture (P5, T = 24 h after injection): 2.25 fold | fold change from T=0, progenitors CFU-GM, methylcellulose culture (P5, T = 24 h after injection): 1.83 fold | % CHG, BFU-E, methylcellulose culture (T = 1 h after injection): 98.9% | % CHG, CFU-GEMM, methylcellulose culture (T = 1 h after injection): 131.8% | % CHG, CFU-GM, methylcellulose culture (T = 1 h after injection): 376.7% | mean fold change compared to T 0, BFU-E, methylcellulose culture, MEAN (T = 1 h after injection): 1.99 fold | mean fold change compared to T 0, CFU-GEMM, methylcellulose culture, MEAN (T = 1 h after injection): 2.32 fold | mean fold change compared to T 0, CFU-GM, methylcellulose culture, MEAN (T = 1 h after injection): 4.77 fold | % CHG, BFU-E, methylcellulose culture (T = 3 h after injection): 221.3% | % CHG, CFU-GEMM, methylcellulose culture (T = 3 h after injection): 332.5% | % CHG, CFU-GM, methylcellulose culture (T = 3 h after injection): 1266.5% | mean fold change compared to T 0, BFU-E, methylcellulose culture, MEAN (T = 3 h after injection): 3.21 fold | mean fold change compared to T 0, CFU-GEMM, methylcellulose culture, MEAN (T = 3 h after injection): 4.33 fold | mean fold change compared to T 0, CFU-GM, methylcellulose culture, MEAN (T = 3 h after injection): 13.66 fold | % CHG, BFU-E, methylcellulose culture (T = 6 h after injection): 500.5% | % CHG, CFU-GEMM, methylcellulose culture (T = 6 h after injection): 907.2% | % CHG, CFU-GM, methylcellulose culture (T = 6 h after injection): 2070.6% | mean fold change compared to T 0, BFU-E, methylcellulose culture, MEAN (T = 6 h after injection): 6.01 fold | mean fold change compared to T 0, CFU-GEMM, methylcellulose culture, MEAN (T = 6 h after injection): 10.07 fold | mean fold change compared to T 0, CFU-GM, methylcellulose culture, MEAN (T = 6 h after injection): 21.71 fold | % CHG, BFU-E, methylcellulose culture (T = 9 h after injection): 334.4% | % CHG, CFU-GEMM, methylcellulose culture (T = 9 h after injection): 425.4% | % CHG, CFU-GM, methylcellulose culture (T = 9 h after injection): 947.3% | mean fold change compared to T 0, BFU-E, methylcellulose culture, MEAN (T = 9 h after injection): 4.34 fold | mean fold change compared to T 0, CFU-GEMM, methylcellulose culture, MEAN (T = 9 h after injection): 5.25 fold | mean fold change compared to T 0, CFU-GM, methylcellulose culture, MEAN (T = 9 h after injection): 10.47 fold | % CHG, BFU-E, methylcellulose culture (T = 24 h after injection): 26.3% | % CHG, CFU-GEMM, methylcellulose culture (T = 24 h after injection): 53.2% | % CHG, CFU-GM, methylcellulose culture (T = 24 h after injection): 55.5% | mean fold change compared to T 0, BFU-E, methylcellulose culture, MEAN (T = 24 h after injection): 1.26 fold | mean fold change compared to T 0, CFU-GEMM, methylcellulose culture, MEAN (T = 24 h after injection): 1.53 fold | mean fold change compared to T 0, CFU-GM, methylcellulose culture, MEAN (T = 24 h after injection): 1.56 fold
